The record followed here is patent publication US6677336B2, “Substituted piperazine compounds” (CV Therapeutics, Inc., priority 2000, dated 2004).

Data set [1] in a line: Metabolic stability in human liver S-9 fractions. As to conditions: human liver S9, 30 min at 37 C, 10 μM; % parent remaining divided by average % ranolazine remaining (57%).
Method: After, 30 minutes at 37 C, the amount of parent drug remaining was determined using LC-mass spec. The response factors for each compound was determined by establishing a standard curve and using an internal standard during the analysis of the samples. […] The compounds of this invention were assayed as described in the protocol below and the percentage of parent remaining was divided by the average % of ranolazine remaining (57%) affording a metabolic stability factor.
The purpose of this experiment is to compare the percentages remaining for compounds of this invention with the percentage remaining for ranolazine after 30 minutes of incubation with human liver S9 fractions.
The following reagents were used; Potassium phosphate, 0.5M pH 7.4 (incubation buffer), kept at room temperature; 0.05M MgCl2 kept at 4° C.; P-Nicotinamide adenine dinucleotide phosphate, tetrasodium salt, reduced form (NADPH), 0.02M solution in water (˜16.6mg/mL) from Sigma Lot #79H7044 prepared on day of use. 1 mM of ranolazine or Compounds 43, 45, 47, 52, 70, 74, 76, 78, and 80 in ACN further diluted to obtain 100 μM in 10% ACN; Human S9 stock: 20 mg/mL from Gentest.
Incubation mixtures were prepared as follows:
Combine all components with incubation buffer and re-pipette 200 μL/tube+25 μL of the compound being tested along with 25 μL of S-9.
After 5 min of pre-incubation at 37° C., at 0 and 30 min after starting the reaction, a 50 μl aliquot of the incubation mixture was removed and added to 100 μL of 9:1 acetonitrile: methanol containing the internal standard.
The mixture was centrifuged and a 100 μL aliquot of the supernatant was diluted in 1 mL of solvent C (0.1% Formic Acid in water). Then samples were analyzed for change between the ratio of compound to internal standard at time zero and 30 minutes by LC/MS (injected 10 EL).
Samples were analyzed for the starting compounds and potential metabolite/s by LC/MS using an internal standard and an ODS-C18 column with a flow rate of 0.25 ml/min.
In data set [2] the test system is mitochondrial fatty acid oxidation (rat heart mitochondria). As to the kind of experiment: Palmitoyl carnitine oxidation in isolated rat heart mitochondria. In kind it is biochemical. The note with it: 15 min at 30° C, DMSO control. How it is done:
(§1) Rat heart mitochondria were isolated by the method of Nedergard and Cannon (methods in Enzymol. 55, 3, 1979).
The Palmitoyl carnitine oxidation was carried out in a total volume of 100 microliters containing the following agents: 110 mM KCl, 33 mM Tris buffer at pH 8, 2 mM KPi, 2 mM MgCl2, 0.1 mM EDTA, 0.1 mg/ml of defatted BSA, 0.5 mM malic acid, 3 mM ADP, 52 micrograms of mitochondrial protein, and 43 microM 1-C14 palmitoyl carnitine (Sp. Activity 60 mCi/mmole; 20 microCi/ml, using 5 microliters per assay). The compounds of this invention were added in a DMSO solution at the following concentrations: 100 microM, 30 microM, and 3 microM. In each assay, a DMSO control was used. After 15 min at 30° C., the enzymatic reaction was centrifuged (20,000 g for 1 min), and 70 microliters of the supernatant was added to an activated reverse phase silicic acid column (approximately 0.5 ml of silicic acid). The column was eluted with 2 ml of water, and 0.5 ml of the eluent was used for scintillation counting to determine the amount of C^14 trapped as C^14 bicarbonate ion. The data are presented as % activity of control in Table 3, below.

The test system is the same in data set [3]. In words: Palmitoyl CoA oxidation in isolated rat heart mitochondria. The format is biochemical. As to conditions: 15 min at 30° C, DMSO control. The method, then:
Compounds of this invention were evaluated in a rat heart mitochondiral assay as set forth below.
as §1
Palmitoyl CoA oxidation—The Palmityl CoA oxidation was carried out in a total volume of 100 micro liters containing the following agents: 110 mM KCl, 33 mM Tris buffer at pH 8, 2 mM KPi, 2 mM MgCl2, 0.1 mM EDTA, 14.7 microM defatted BSA, 0.5 mM malic acid, 13 mM carnitine, 1 mM ADP, 52 micrograms of mitochondrial protein, and 16 microM 1-C14 palmitoyl CoA (Sp. Activity 60 mCi/mmole; 20 microCi/ml, using 5 microliters per assay). The compounds of this invention were added in a DMSO solution at the following concentrations: 100 microM, 30 microM, and 3 microM. In each assay, a DMSO control was used. After 15 min at 30° C., the enzymatic reaction was centrifuged (20,000 g for 1 min), and 70 microliters of the supernatant was added to an activated reverse phase silicic acid column (approximately 0.5 ml of silicic acid). The column was eluted with 2 ml of water, and 0.5 ml of the eluent was used for scintillation counting to determine the amount of C^14 trapped as C^14 bicarbonate ion.

`COc1ccccc1OCC(O)CN1C[C@@H](C)N(CC(=O)Nc2c(C)cccc2C)C[C@@H]1C` (stereo partly drawn) [Compound 15, 2-{(5S,2R)-4-[2-hydroxy-3-(2-methoxyphenoxy)propyl]-2,5-dimethylpiperazinyl}-N-(2,6-dimethylphenyl)acetamide]: the “Liver S9 Parent Present relative to Ranolazine” value in data set [1] came out at 1.20. Also, the “Inhibition of mitochondrial fatty acid oxidation using palmitoyl carnitine as substrate - % of Control” value is reported as 106% in data set [2] (3 μM compound), 98% in data set [2] (30 μM compound) and 82% in data set [2] (100 μM compound). In addition, the “Inhibition of mitochondrial fatty acid oxidation using palmitoyl CoA as substrate - % of Control” value in data set [3] (3 μM compound) was determined as 103%; in data set [3] (30 μM compound), 97%; in data set [3] (100 μM compound), 78%.
For `COc1ccccc1OCC(O)CN1CCN(CC(=O)Nc2c(C)cccc2C)C(=O)C1` (stereo not drawn) [Compound 16, N-(2,6-dimethylphenyl)-2-{4-[2-hydroxy-3-(2-methoxyphenoxy)propyl]-2-oxopiperazinyl}acetamide], the “Liver S9 Parent Present relative to Ranolazine” value in data set [1] turned out to be 0.15. Further, the “Inhibition of mitochondrial fatty acid oxidation using palmitoyl carnitine as substrate - % of Control” value in data set [2] (100 μM compound) is 64%. Also, the “Inhibition of mitochondrial fatty acid oxidation using palmitoyl CoA as substrate - % of Control” value worked out at 96% in data set [3] (30 μM compound) and 100% in data set [3] (100 μM compound).
Take `COc1ccccc1OCC(O)CN1CCN(CC(=O)Nc2c(C)cccc2C)C2CCCCC21` (stereo not drawn) [Compound 17]: in data set [1], the “Liver S9 Parent Present relative to Ranolazine” value amounted to 0.45. Besides, the “Inhibition of mitochondrial fatty acid oxidation using palmitoyl carnitine as substrate - % of Control” value in data set [2] (3 μM compound) was 103%; in data set [2] (30 μM compound), 88%; in data set [2] (100 μM compound), 80%. In addition, the results for the “Inhibition of mitochondrial fatty acid oxidation using palmitoyl CoA as substrate - % of Control” value in data set [3] (3 μM compound), in data set [3] (30 μM compound) and in data set [3] (100 μM compound) were 100%, 98% and 89%, respectively.
